Counter-ions that a name gives are not always drawn.
Test system: brain
Test: Transcriptional profiling, multi-dosing regimen, naïve mice: brain
Type: in vivo
Details: for FC: BRAIN_HEMI, 100MMF-vs-Veh
Description: In vivo, DMF is rapidly metabolized to monomethyl fumarate (MMF). […] Animals were exposed to CO2 and whole blood collected via cardiac puncture. Two 100 μl aliquots of whole blood were collected in 1.5 mL microcentrifuge tubes and snap frozen in liquid nitrogen. Peripheral (liver, spleen, kidney and jejunum) and CNS brain (cerebellum, hippocampus, striatum and cortex) tissues were harvested and snap frozen in liquid nitrogen, with special care taken to collect tissues of similar size and from the same location. All samples were stored at -80° C. until RNA extraction was conducted. For RNA preparation, frozen tissues were placed in 2 mL RNAse-free 96-well blocks with 1.5 mL QIAzol Lysis Reagent (QIAgen) and a 3.2 mm stainless steel bead (BioSpec Products, Bartlesville, Okla.). Tissues were disrupted for four cycles of 45 seconds in a Mini-Beadbeater (Biospec Products). RNA was extracted in chloroform and the aqueous phase was mixed with an equal volume of 70% ethanol. Extracted RNA was applied to RNeasy 96 plates and purified by the spin method according to the manufacturer's protocol (RNeasy 96 Universal Tissue Protocol, QIAgen, Hilden Germany). […] Two micrograms of biotin labeled […] probe were hybridized to Affymetrix GeneChip Affymetrix HT_MG-430_PM plate arrays with modified conditions as described in […] et al. Washing and staining of the hybridized arrays were completed as described in the GeneChip Expression analysis technical manual for HT plate arrays using the Genechip® Array Station (Affymetrix, Santa Clara, Calif.) with modifications as described in […] et al. The processed GeneChip® plate arrays were scanned using GeneTitan scanner (Affymetrix, Santa Clara, Calif.). Affymetrix scans were subject to quality control (QC) measures. These tests included a visual inspection of the distribution of raw signal intensities and an assessment of RNA degradation, relative log expression (RLE), and normalized unsealed standard error (NUSE). All sample scans that passed these QC metrics were included in the analysis. All CEL files were subjected to GC-content-based Robust Multi-array Average (GCRMA) normalization (version 2.20.0) (Irizarry R A, et al. Nucleic Acids Res 2003; 31:e15; Li C, et al. […] Stat Appl Genet Mol Biol 2004; 3:Article3). […] Springer Science+Business Media 2005). Changes in gene expression were studied by applying a linear modeling approach to fit gene expression levels according to the defined groups of samples (e.g. DMF-, MMF-, and Vehicle-treated animals) and Bayesian posterior error analysis as implemented by Smyth (Smyth G K. Stat Appl Genet Mol Biol 2004; 3:Article3). The comparisons considered included: DMF-vs-MMF, DMF-vs-Vehicle, and MMF-vs-Vehicle. […] Very few DEGs are observed in blood and tissues derived from the central nervous system (brain, cerebellum, cortex, striatum, and spinal cord).

COC(=O)/C=C/C(=O)O [MMF, monomethyl fumarate]
FC (0610037L13Rik 1429879_PM_at): −1.51
FC (1436646_PM_at (no gene symbol)): −1.53
FC (1437987_PM_at (no gene symbol)): −1.66
FC (1438259_PM_at (no gene symbol)): −1.59
FC (2310079F09Rik 1433201_PM_at): 2.17
FC (2610021A01Rik 1438786_PM_a_at): −1.90
FC (2610044O15Rik 1428693_PM_at): −1.52
FC (2900062L11Rik 1428333_PM_at): −1.50
FC (4930432O21Rik 1434625_PM_at): −1.66
FC (4930453N24Rik 1438553_PM_x_at): −1.61
FC (4933421E11Rik 1428162_PM_at): −1.50
FC (A730017C20Rik 1437528_PM_x_at): −2.06
FC (AI597468 1433897_PM_at): −1.51
FC (AI747699 1433914_PM_at): −2.28
FC (Abi1 1438506_PM_s_at): −2.04
FC (Acad9 1429581_PM_at): −1.55
FC (Akr1a4 1430123_PM_a_at): −1.75
FC (Aldh9a1 1436689_PM_a_at): −1.63
FC (Aldh18a1 1437325_PM_x_at): −1.51
FC (Ampd2 1438941_PM_x_at): −1.76
FC (Apex1 1437715_PM_x_at): −1.52
FC (Appl1 1436116_PM_x_at): −1.62
FC (Arhgap21 1428369_PM_s_at): −1.66
FC (Atp13a5 1436411_PM_at): −1.51
FC (Atxn10 1438653_PM_x_at): −1.69
FC, Depp (1433836_PM_a_at) (BrainHemi, multi-dosing, MMF-vs-Vehicle): −1.01
FC (Btg1 /// LOC100047353 1437455_PM_a_at): −1.55
FC (Cadm2 1429211_PM_at): −1.76
FC (Cadm2 1435146_PM_s_at): −2.25
FC (Cherp 1436885_PM_a_at): −1.99
FC (Chuk 1428210_PM_s_at): −1.68
FC (Clcc1 1436390_PM_a_at): −1.64
FC (Clvs1 1433906_PM_at): −1.54
FC (Cpt1a 1434866_PM_x_at): −1.81
FC (Cttnbp2 1435435_PM_at): −1.75
FC (Dab2 1429693_PM_at): 1.53
FC (Ddx5 1438371_PM_x_at): −1.52
FC (Derl1 1437723_PM_s_at): −1.51
FC (Dnpep 1438557_PM_x_at): −1.50
FC (Enoph1 1437327_PM_x_at): −1.62
FC (Fam13c 1436761_PM_s_at): −1.83
FC (Fbxo11 1434108_PM_at): −1.50
FC (Gm5256 /// Gm5529 /// Slc25a5 1438360_PM_x_at): −1.53
FC (Gm5256 /// Gm5529 /// Slc25a5 1438922_PM_x_at): −1.51
FC (Gm6159 /// Hnrnpr 1437526_PM_x_at): −1.61
FC (Gm11793 /// Hnrnpf 1437099_PM_x_at): −1.53
FC (Gm13342 /// Gm15776 /// Gm3150 /// Gng5 /// LOC100044719 1436946_PM_s_at): −1.70
FC (Gm14288 1429712_PM_at): −1.68
FC (Gns 1433488_PM_x_at): −2.01
FC (Gria4 1436772_PM_at): −1.57
FC (Hadhb 1437172_PM_x_at): −1.86
FC (Hbxip 1436152_PM_a_at): −1.65
FC (Higd1c /// Mettl7a1 /// Mettl7a2 1434150_PM_a_at): −1.60
FC (Hnrpdl 1428224_PM_at): −1.60
FC (Hs3st2 1438624_PM_x_at): −1.86
FC (Impa1 1436848_PM_x_at): −1.55
FC (Ing1 1433267_PM_at): 1.53
FC (Ipo4 1436420_PM_a_at): −1.64
FC (Itgb8 1436223_PM_at): −1.59
FC (LOC100047324 /// Sesn1 1438931_PM_s_at): −1.97
FC (Laptm4b 1436915_PM_x_at): −1.68
FC (Lasp1 1438634_PM_x_at): −1.50
FC (Mettl9 1438171_PM_x_at): −1.63
FC (Mthfd2l 1429599_PM_a_at): −1.71
FC (Ncoa2 1435233_PM_at): −1.55
FC (Ndufb6 1434056_PM_a_at): −1.56
FC (Nelf 1436959_PM_x_at): −1.65
FC (Nxph1 1436718_PM_at): −1.56
FC (Paics 1436298_PM_x_at): −1.57
FC (Paqr3 1429216_PM_at): −1.56
FC (Phyhipl 1437062_PM_s_at): −1.69
FC (Pisd-ps1 /// Pisd-ps3 1436944_PM_x_at): −2.43
FC (Pofut2 1437845_PM_x_at): −1.98
FC (Poldip3 1437837_PM_x_at): −1.74
FC (Polr3a 1437525_PM_a_at): −1.76
FC (Ppip5k2 1433856_PM_at): −1.57
FC (Prkg2 1435162_PM_at): −1.69
FC (Prss23 1437671_PM_x_at): −1.74
FC (Ptpdc1 1433823_PM_at): −1.59
FC (Ptpn2 1438562_PM_a_at): −1.74
FC (Rgs19 1434940_PM_x_at): −1.51
FC (Rif1 1429490_PM_at): −1.82
FC (Rnf14 1437035_PM_x_at): −1.68
FC (Rnf157 1434427_PM_a_at): −1.67
FC (Sfrs13b 1437168_PM_at): −1.66
FC (Slc9a3r1 1438115_PM_a_at): −1.85
FC (Slc12a6 1436989_PM_s_at): −1.80
FC (Snx16 1438803_PM_s_at): −1.55
FC (Sp4 1437508_PM_at): −1.54
Number of differentially expressed genes identified: Brain Hemi (Table 13: Naïve, Single Dose (so in the source), 90 mpk MMF-vs-Vehicle, 12 h after last dosing): 280
FC (Tchh 1434425_PM_at): −1.64
FC (Tmem41b 1428586_PM_at): −1.89
FC (Tox3 1436600_PM_at): −1.56
FC (Trim9 1434249_PM_s_at): −1.58
FC (Ttc14 1437878_PM_s_at): −1.64
FC (Tubgcp4 1433659_PM_at): −1.54
FC (Uba2 1437278_PM_a_at): −1.50
FC (Uba3 1435164_PM_s_at): −1.65
FC (Zdhhc20 1434236_PM_at): −1.64
FC (Zfp110 1437236_PM_a_at): −1.77
FC (Zfp260 1436495_PM_s_at): −1.65
FC (Zfp788 1429371_PM_at): −1.65
